Reference: patent publication US20140243400A1, “COMPOSITIONS COMPRISING CITRIC ACID AND MALIC ACID AND METHODS AND USES THEREOF” (University of Alaska Anchorage, priority 2013, published 2014)
“Also recorded” adds a separate entry of the source.

Tests used:
[1] = test system: neutral sphingomyelinase (nSMase); assay: nSMase-mediated ceramide release in TNF-α-treated neuroblastomas; assay type: cell-based; details: neuroblastomas treated with TNF-α in conjunction with citrate or malate at 0.5 μg/ml
Protocol: Neuroblastomas were not treated (NT) or treated with tumor necrosis factor α (TNF-α), either alone or in conjunction with citrate or malate at 0.5 μg/ml.
Ceramides and ceramide metabolites are important intracellular signaling molecules which influence inflammation, proliferative and apoptotic processes, neurodegeneration, and insulin sensitivity. Elevated ceramides are associated with neurodegenerative disorders including Alzheimer's and Parkinson's disease as well as normal aging.

[2] = Tolerability of oral malate in aged rats; assay type: in vivo; details: 24 aged rats, 200 mg/Kg orally, voluntary consumption in water
[3] = test system: SH-SY5Y human neuroblastoma cells; assay: Intracellular malate after malate pretreatment and peroxide insult; assay type: cell-based
Protocol: Intracellular malate decreases 20% in the first 30 minutes following peroxide treatment and continues to slowly decrease over the rest of the time course. SH-SY5Y human neuroblastoma cells were grown to 90% confluency on 100 mm tissue culture dishes in 10% FBS supplemented DMEM, serum starved for 12 hours, and treated with 100 μM H2O2 in serum free DMEM for either 0, 15, 30, 45, 60, or 90 minutes. All treatments were performed in triplicate. Following treatment, neurons were rinsed with PBS, harvested and evaluated for total […] via abcam malate assay kit (ab83391). […] Cells were treated with 0.5 μg/mL malate in serum free DMEM for 1 hour prior to peroxide insult. Malate supplementation increased intracellular malate by nearly 50%.

[4] = test system: SH-SY5Y human neuroblastoma cells; assay: Intracellular GSH after malate pretreatment and peroxide insult; assay type: cell-based; details: 0.5 μg/mL malate for 1 hour prior to peroxide insult
Protocol: GSH is widely considered the cornerstone of endogenous redox defense. Intracellular concentrations of total GSH clearly decrease in response to oxidative insult, confirming GSH is actively consumed as part of the endogenous redox defense response in human neurons, specifically to produce regenerate antioxidative enzymes. […] All treatments were performed in triplicate. Following treatment, neurons were rinsed with PBS and evaluated for total GSH (excluding GSSG) via Promega GSH-Glo Glutathione Assay. The assay is based on the conversion of a lucifin derivative into lucifierin in the presence of GSH. […] Cells were treated with 0.5 μg/mL malate in serum free DMEM for 1 hour prior to peroxide insult.

Fischer F344 inbred rats = assay: Spatial memory, rewarded alternation in T-maze, aged rats; assay type: in vivo; details: for T-maze alternation: 200 mg/Kg in water, 6 weeks supplementation; for spatial memory vs control rats: aged F344 rats, 200 mg/Kg, T-maze
Protocol: Spatial memory was measured by alternation in a T-maze. […] Both aged groups supplemented with malic acid performed equivalently to non-impaired rats, at 85% correct alternation, or better.
24 male Fischer F344 inbred rats were evaluated at 10 months and 23 months of age. Half were provided supplemental dietary malate. Following 6 weeks supplementation, spatial memory was evaluated using a rewarded alternation procedure in a T-maze apparatus (10 trials per subject). Healthy, non-impaired, rats alternate at 85% while hippocampectomized rats incapable of encoding spatial memories alternate at chance, 50%. […] The 23 month old, control, rats were severely impaired, hardly scoring better than chance, at 57% alternation. 23 month old malate-supplemented rats alternated at 85%, a score equivalent to a young, not impaired rat. (FIG. 10).

Question: What does the source list for `O=C(O)CC(O)C(=O)O` (stereo not shown) [malate, malic acid]?
Answer: nSMase-mediated ceramide release / nSMase activation [1]: significantly decrease; also recorded: able to curb nSMase activation; ill effects observed [2]: no ill effects were observed; intracellular malate after peroxide insult ([3]; 0.5 μg/mL malate for 1 hour prior to peroxide insult): higher levels than non-treated and non-insulted cells; also recorded: prevent critical depletion of malate; increase of intracellular malate ([3]; 0.5 μg/mL malate in serum free DMEM for 1 hour): ~50%; intracellular GSH after peroxide insult [4]: higher levels of GSH than non-treated and non-insulted cells; also recorded: prevent critical depletion of GSH; intracellular GSH vs non-supplemented cells ([4]; 0-60 minutes post peroxide): significantly higher levels of GSH than non-supplemented cells; also recorded: increase intracellular pools of GSH; T-maze alternation (Fischer F344 inbred rats; 10 month old F344 rats): 92.5%; T-maze alternation (Fischer F344 inbred rats; 23 month old F344 rats): 85%; spatial memory vs control rats (Fischer F344 inbred rats): statistically significant improvement in spatial memory; spatial memory vs control rats (Fischer F344 inbred rats; listed as malic acid): significantly improves performance in spatial memory; T-maze correct alternation (Fischer F344 inbred rats; both aged groups (10 and 23 months), oral 200 mg/Kg): ≥ 85%

Question: With `O=C(O)CC(O)(CC(=O)O)C(=O)O` [citrate, citric acid] as the molecule, how does the “nSMase-mediated ceramide release / nSMase activation” value [1] read?
Answer: Its value is “able to curb nSMase activation”.

Question: And the “nSMase-mediated ceramide release / nSMase activation” value ([1]; listed as Citrate)?
Answer: The value was “significantly decrease”.
